From paper PMC11808397, “Development of selective nanomolar cyclic peptide ligands as GBA1 enzyme stabilisers” (RSC Chemical Biology, 2025)
Positions of bridges follow the written chain, without caps; N, C: chain ends. Non-standard residues stand in square brackets, D forms with d. Residues, ends and D or L forms follow the SMILES beside them.

Test system: Human dermal fibroblasts
Test: Toxicity / morphology of human dermal fibroblasts
Type: cell-based
Details: 3 hours, peptide concentrations above 10 μM (10 and 100 μM)
Procedure: We further investigated GBA1 inhibition in cells. Human dermal fibroblasts were initially incubated with peptide concentrations ranging from 0.1 μM (from 0.001 μM for L4, D1 and D12) to 100 μM of each cyclic peptide for […]. […] To further confirm the inability of these peptides to cross the cell membrane, we conducted in situ competitive activity-based protein profiling (cABPP) experiments using RAW 264.7 monocyte/macrophage-like cells. […] RAW 264.7 cells were then treated with increasing concentrations of cyclic peptides (0, 0.1, 1, 10, and 100 μM) for 4 hours, followed by exposure to a cell-penetrant Bodipy red broad spectrum GBA activity-based probe (ABP), JJB75[58] at 10 nM for 2 hours (Fig. S5 for chemical structures, ESI ^†). […] This cABPP experiment further confirms that the peptides are unable to cross the cell membrane (Fig. S6, ESI ^†).

Row | Compound | toxicity to the cells (morphology)
1 | CC(C)C[C@H](NC(=O)[C@@H](NC(=O)[C@H](CCCNC(=N)N)NC(=O)[C@@H]1CSCC(=O)N[C@H](Cc2ccc(O)cc2)C(=O)N[C@@H]([C@@H](C)O)C(=O)N2CCC[C@H]2C(=O)NCC(=O)N[C@@H](Cc2ccc(O)cc2)C(=O)N[C@@H](C(C)C)C(=O)N[C@@H](Cc2ccc(O)cc2)C(=O)N1)C(C)C)C(=O)N[C@@H](CCCCN)C(=O)N[C@@H](Cc1ccc(O)cc1)C(=O)N[C@@H](CS)C(N)=O [D8] ({CH2CO}-[dY]TPGYVYCRVLKYC-NH2; thioether N-8) | still attached and otherwise looked healthy
2 | CC(C)C[C@@H]1NC(=O)CNC(=O)[C@H](CC(C)C)NC(=O)[C@@H](Cc2ccc(O)cc2)NC(=O)CSC[C@@H](C(N)=O)NC(=O)[C@H](CO)NC(=O)[C@H](CCCCN)NC(=O)[C@H](CC(C)C)NC(=O)[C@H](Cc2ccccc2)NC(=O)[C@H](CCCNC(=N)N)NC(=O)[C@H](Cc2ccc(O)cc2)NC(=O)[C@H](Cc2c[nH]c3ccccc23)NC1=O [D12] ({CH2CO}-[dY]LGLWYRFLKSC-NH2; thioether N-12) | still attached and otherwise looked healthy
